Experimental data taken from US10316017B2, “COT modulators and methods of use thereof” (Gilead Sciences, Inc., priority 2015, dated 2019).
Like-named read-outs stand apart in the source and are kept apart here.

Experiments:
[1] = tested on: TNFα production in LPS-stimulated human monocytes; assay: Cot Monocyte TNFα Cell Based Assay; settings: LPS-stimulated human monocytes, TNFα TR-FRET, read-out: EC50 TNF
Method in brief: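 5,000 cells/well; cmpd 1 h, 37 °C, 0.5% DMSO final; LPS 50 pg/ml, 4 h, 37 °C; media TNFα by HTRF sandwich (cryptate/XL665), RT overnight; % control vs unstimulated/stimulated wells.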

[2] = molecular target: T1, human Cot catalytic domain (30-397 amino acids) (Homo sapiens, UniProt P41279); assay: High Throughput Cot Biochemical Assay (KinEASE TR-FRET); settings: Cot KinEASE TR-FRET, 400 μM ATP; read-out: IC50 HTRF
T1 construct: Purified recombinant human Cot catalytic domain (30-397 amino acids) was purchased from Cama Biosciences; purchased Cama Biosciences (so in the source)
Method in brief: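 First, purified human Cot (aa 30-397) at 5 nM phosphorylates an XL665-labeled STK3 peptide (1 μM) at 400 μM ATP, pH 7.0, 0.1% DMSO. Then a europium-conjugated phospho-specific antibody binds the product, giving the TR-FRET signal.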

T1 sequence (P41279 30-397): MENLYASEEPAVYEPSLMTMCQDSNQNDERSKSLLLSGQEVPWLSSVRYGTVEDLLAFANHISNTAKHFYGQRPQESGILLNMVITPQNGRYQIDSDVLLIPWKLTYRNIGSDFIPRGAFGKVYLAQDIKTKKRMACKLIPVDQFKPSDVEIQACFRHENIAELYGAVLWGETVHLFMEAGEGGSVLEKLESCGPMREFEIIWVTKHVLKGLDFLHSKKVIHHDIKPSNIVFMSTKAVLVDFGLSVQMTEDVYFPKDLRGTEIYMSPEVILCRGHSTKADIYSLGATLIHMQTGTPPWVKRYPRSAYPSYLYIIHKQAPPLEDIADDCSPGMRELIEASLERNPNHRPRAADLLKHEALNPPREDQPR

Structure (SMILES) | EC50 ([1]; Homo sapiens, Monocyte) | IC50 [2] | EC50 [1]
CC(C)(C)CNc1c(C#N)cnc2c(C#N)cc(N[C@@H](c3ccccc3)c3cn(C45CC(C4)C5)nn3)cc12 [Example 1124, (S)-6-(((1-(bicyclo[1.1.1]pentan-1-yl)-1H-1,2,3-triazol-4-yl)(phenyl)methyl)amino)-4-(neopentylamino)quinoline-3,8-dicarbonitrile] | 0.138 µM | 0.004 µM | 
Cc1c(C#N)cccc1[C@H](Nc1cc(C#N)c2ncc(C#N)c(NCC(C)(C)C(F)(F)F)c2c1)c1cn(C2(C(F)F)CC2)nn1 [Example 1125, (S)-6-(((3-cyano-2-methylphenyl)(1-(1-(difluoromethyl)cyclopropyl)-1H-1,2,3-triazol-4-yl)methyl)amino)-4-((3,3,3-trifluoro-2,2-dimethylpropyl)amino)quinoline-3,8-dicarbonitrile] | 0.051 µM | 0.004 µM | 
Cc1c(C#N)cccc1[C@H](Nc1cc(C#N)c2ncc(C#N)c(NCC(C)(C)C(F)(F)F)c2c1)c1cn(C2(C(F)F)CC2)nn1 [Example 1126, (S)-6-(((3-cyano-2-methylphenyl)(1-(1-(difluoromethyl)cyclopropyl)-1H-1,2,3-triazol-4-yl)methyl)amino)-4-((3,3,3-trifluoro-2,2-dimethylpropyl)amino)quinoline-3,8-dicarbonitrile] |  | 0.005 µM | 0.066 µM
Cc1c(F)cccc1[C@H](Nc1cc(C#N)c2ncc(C#N)c(NCC(C)(C)C)c2c1)c1cn(C2(C(F)(F)F)CC2)nn1 [Example 1127, (S)-6-(((3-fluoro-2-methylphenyl)(1-(1-(trifluoromethyl)cyclopropyl)-1H-1,2,3-triazol-4-yl)methyl)amino)-4-(neopentylamino)quinoline-3,8-dicarbonitrile] | 0.221 µM | 0.013 µM | 
CC(C)(C)CNc1c(C#N)cnc2c(C#N)cc(N[C@@H](c3cccc(C4(C#N)CC4)c3)c3cn(C4(C(F)(F)F)CC4)nn3)cc12 [Example 1128, (S)-6-(((3-(1-cyanocyclopropyl)phenyl)(1-(1-(trifluoromethyl)cyclopropyl)-1H-1,2,3-triazol-4-yl)methy;)amino)-4-(neopentylamino)quinoline-3,8-dicarbonitrile] | 0.307 µM | 0.009 µM | 
CC(C)(C)CNc1c(C#N)cnc2c(C#N)cc(N[C@@H](c3cccc(C4(C#N)CC4)c3)c3cn(C45CC(C4)C5)nn3)cc12 [Example 1129, (S)-6-(((1-(bicyclo[1.1.1]pentan-1-yl)-1H-1,2,3-triazol-4-yl)(3-(1-cyanocyclopropyl)phenyl)methyl)amino)-4-(neopentylamino)quinoline-3,8-dicarbonitrile] | 0.148 µM | 0.005 µM | 
CC(C)(C)CNc1c(C#N)cnc2c(C#N)cc(N[C@@H](c3ccc(F)cc3)c3cn(C45CC(C4)C5)nn3)cc12 [Example 1130, (S)-6-(((1-(bicyclo[1.1.1]pentan-1-yl)-1H-1,2,3-triazol-4-yl)(4-fluorophenyl)methyl)amino)-4-(neopentylamino)quinoline-3,8-dicarbonitrile] | 0.103 µM | 0.01 µM | 
Cc1c(-c2cnco2)cccc1[C@H](Nc1cc(C#N)c2ncc(C#N)c(NCC(C)(C)C)c2c1)c1cn(C2(C(F)(F)F)CC2)nn1 [Example 1131, (S)-6-(((2-methyl-3-(oxazol-5-yl)phenyl)(1-(1-(trifluoromethyl)cyclopropyl)-1H-1,2,3-triazol-4-yl)methyl)amino)-4-(neopentylamino)quinoline-3,8-dicarbonitrile] | 0.038 µM | 0.003 µM | 
Cc1c(-c2cc[nH]n2)cccc1[C@H](Nc1cc(C#N)c2ncc(C#N)c(NCC(C)(C)C)c2c1)c1cn(C2(C(F)(F)F)CC2)nn1 [Example 1132, (S)-6-(((2-methyl-3-(1H-pyrazol-3-yl)phenyl)(1-(1-(trifluoromethyl)cyclopropyl)-1H-1,2,3-triazol-4-yl)methyl)amino)-4-(neopentylamino)quinoline-3,8-dicarbonitrile] | 0.175 µM | 0.008 µM | 
Cc1c(-c2cn[nH]c2)cccc1[C@H](Nc1cc(C#N)c2ncc(C#N)c(NCC(C)(C)C)c2c1)c1cn(C2(C(F)(F)F)CC2)nn1 [Example 1133, (S)-6-(((2-methyl-3-(1H-pyrazol-4-yl)phenyl)(1-(1-(trifluoromethyl)cyclopropyl)-1H-1,2,3-triazol-4-yl)methyl)amino)-4-(neopentylamino)quinoline-3,8-dicarbonitrile] | 0.027 µM | 0.004 µM | 
Cc1c(-c2ccnnc2)cccc1[C@H](Nc1cc(C#N)c2ncc(C#N)c(NCC(C)(C)C)c2c1)c1cn(C2(C(F)(F)F)CC2)nn1 [Example 1134, (S)-6-(((2-methyl-3-(pyridazin-4-yl)phenyl)(1-(1-(trifluoromethyl)cyclopropyl)-1H-1,2,3-triazol-4-yl)methyl)amino)-4-(neopentylamino)quinoline-3,8-dicarbonitrile] | 0.057 µM | 0.002 µM | 
Cc1c(-c2cncn2C)cccc1[C@H](Nc1cc(C#N)c2ncc(C#N)c(NCC(C)(C)C)c2c1)c1cn(C2(C(F)(F)F)CC2)nn1 [Example 1135, (S)-6-(((2-methyl-3-(1-methyl-1H-imidazol-5-yl)phenyl)(1-(1-(trifluoromethyl)cyclopropyl)-1H-1,2,3-triazol-4-yl)methyl)amino)-4-(neopentylamino)quinoline-3,8-dicarbonitrile] | 0.044 µM | 0.002 µM | 
Cc1c(-c2cccnc2)cccc1[C@H](Nc1cc(C#N)c2ncc(C#N)c(NCC(C)(C)C)c2c1)c1cn(C2(C(F)(F)F)CC2)nn1 [Example 1136, (S)-6-(((2-methyl-3-(pyridin-3-yl)phenyl)(1-(1-(trifluoromethyl)cyclopropyl)-1H-1,2,3-triazol-4-yl)methyl)amino)-4-(neopentylamino)quinoline-3,8-dicarbonitrile] | 0.128 µM | 0.004 µM | 
Cc1c(-c2ccncc2)cccc1[C@H](Nc1cc(C#N)c2ncc(C#N)c(NCC(C)(C)C)c2c1)c1cn(C2(C(F)(F)F)CC2)nn1 [Example 1137, (S)-6-(((2-methyl-3-(pyridin-4-yl)phenyl)(1-(1-(trifluoromethyl)cyclopropyl)-1H-1,2,3-triazol-4-yl)methyl)amino)-4-(neopentylamino)quinoline-3,8-dicarbonitrile] | 0.07 µM | 0.005 µM | 
Cc1c(-c2cnn(C)c2)cccc1[C@H](Nc1cc(C#N)c2ncc(C#N)c(NCC(C)(C)C)c2c1)c1cn(C2(C(F)(F)F)CC2)nn1 [Example 1138, (S)-6-(((2-methyl-3-(1-methyl-1H-pyrazol-4-yl)phenyl)(1-(1-(trifluoromethyl)cyclopropyl)-1H-1,2,3-triazol-4-yl)methyl)amino)-4-(neopentylamino)quinoline-3,8-dicarbonitrile] | 0.061 µM | 0.004 µM | 
Cc1cc(C#N)ccc1[C@H](Nc1cc(C#N)c2ncc(C#N)c(NCC(C)(C)C)c2c1)c1cn(C2(C(F)F)CC2)nn1 [Example 1139, (S)-6-(((4-cyano-2-methylphenyl)(1-(1-(difluoromethyl)cyclopropyl)-1H-1,2,3-triazol-4-yl)methyl)amino)-4-(neopentylamino)quinoline-3,8-dicarbonitrile] | 0.082 µM | 0.013 µM | 
Cc1cc(C#N)ccc1[C@H](Nc1cc(C#N)c2ncc(C#N)c(NCC(C)(C)C)c2c1)c1cn(C2(C(F)(F)F)CC2)nn1 [Example 1140, (S)-6-(((4-cyano-2-methylphenyl)(1-(1-(trifluoromethyl)cyclopropyl)-1H-1,2,3-triazol-4-yl)methyl)amino)-4-(neopentylamino)quinoline-3,8-dicarbonitrile] | 0.119 µM | 0.022 µM | 
Cc1c(-c2ccncc2)cccc1[C@H](Nc1cc(C#N)c2ncc(C#N)c(NCC(C)(C)C)c2c1)c1cn(C2(C(F)F)CC2)nn1 [Example 1141, (S)-6-(((1-(1-(difluoromethyl)cyclopropyl)-1H-1,2,3-triazol-4-yl)(2-methyl-3-(pyridin-4-yl)phenyl)methyl)amino)-4-(neopentylamino)quinoline-3,8-dicarbonitrile] | 0.069 µM | 0.002 µM | 
Cc1c(-c2cnn(C)c2)cccc1[C@H](Nc1cc(C#N)c2ncc(C#N)c(NCC(C)(C)C)c2c1)c1cn(C2(C(F)F)CC2)nn1 [Example 1142, (S)-6-(((1-(1-(difluoromethyl)cyclopropyl)-1H-1,2,3-triazol-4-yl)(2-methyl-3-(1-methyl-1H-pyrazol-4-yl)phenyl)methyl)amino)-4-(neopentylamino)quinoline-3,8-dicarbonitrile] | 0.031 µM | 0.002 µM | 
Cc1c(-c2ccn(C)n2)cccc1[C@H](Nc1cc(C#N)c2ncc(C#N)c(NCC(C)(C)C)c2c1)c1cn(C2(C(F)(F)F)CC2)nn1 [Example 1143, (S)-6-(((2-methyl-3-(1-methyl-1H-pyrazol-3-yl)phenyl)(1-(1-(trifluoromethyl)cyclopropyl)-1H-1,2,3-triazol-4-yl)methyl)amino)-4-(neopentylamino)quinoline-3,8-dicarbonitrile] | 0.239 µM | 0.007 µM | 
Cc1c(-c2ccccn2)cccc1[C@H](Nc1cc(C#N)c2ncc(C#N)c(NCC(C)(C)C)c2c1)c1cn(C2(C(F)(F)F)CC2)nn1 [Example 1144, (S)-6-(((2-methyl-3-(pyridin-2-yl)phenyl)(1-(1-(trifluoromethyl)cyclopropyl)-1H-1,2,3-triazol-4-yl)methyl)amino)-4-(neopentylamino)quinoline-3,8-dicarbonitrile] | 0.379 µM | 0.011 µM | 
